Test results: PubChem BioAssay AID463074 (Broad Institute, 2010)
Active and inactive are the calls of the source.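 Rule for the calls: active = AC50 no more than tenfold above the top dose tested, or full inhibition at every dose with a flat fit (cut at about 19 µM in these data); inconclusive = flat curve fit with inhibition between 30% and 70%, or poor fit; inactive = AC50 more than tenfold above the top dose tested.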

Tested on: HMLE_sh_eGFP viability, CellTiter-Glo luminescence, 72 h
Assay: cytotoxicity in HMLE control line with eGFP shRNA, dose response, counter-screen for HMLE_sh_ECad selective toxicity project, cell-based, HMLE_sh_eGFP, luminescence (AID 463074);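 note: counterscreen control line to flag general toxicity for the HMLE_sh_ECad screen; potency for loss of viability as luminescence drops below DMSO wells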

Structure (SMILES)	AC50
Cc1cc(C)cc(CC(Cc2nc3ccccc3[nH]2)c2nc3ccccc3[nH]2)c1 (configuration not stated)	7.82 µM
CNC(=O)NC(=O)C(C)OC(=O)c1oc2ccccc2c1CSc1ccc(Cl)cc1 (configuration not stated)	19.3 µM
COc1cccc(-c2sc3ccc(OC)cc3c2C#CC2(O)CCCCC2)c1	7.25 µM
CCc1ccc([C@@H]2CC=C(C(=O)O)[C@H](c3ccc(Cl)cc3)N2S(=O)(=O)c2ccc(C)cc2)cc1	7.1 µM
COc1ccccc1C1=NOC(COc2ccc3c(C)cc(=O)oc3c2)C1 (configuration not stated)	0.288 µM
Cc1ccc(C(NC(=O)C(C)C)c2cc([N+](=O)[O-])c3cccnc3c2O)cc1 (configuration not stated)	3.16 µM
CCN(CC)S(=O)(=O)c1cccc(NC(=O)Nc2cccc(C(F)(F)F)c2)c1	3.56 µM
CC(C)Oc1ccc(C(=O)/C=C2/C(=O)Nc3ccccc32)cc1	6.4 µM
CCOC(=O)/C(=N/Nc1ccccc1)c1csc(Nc2ccccc2)n1	3.69 µM
CCCCCCSc1cc(-c2nc3cc(C)ccn3c2NCCCC)ccc1OC	8.88 µM
COc1cccc(/C=N/Nc2ncnc(Cl)c2N)c1O	3.29 µM
COc1cc(CNCCc2c[nH]c3ccccc23)ccc1OCc1ccccc1F	3.64 µM
COc1ccc(/C=C/C(=O)c2ccc([N+](=O)[O-])o2)cc1	2.87 µM
COc1ccc(CCNc2ccc(C(CC(N)=O)NC(=O)c3ccc(Br)cc3)cc2[N+](=O)[O-])cc1 (configuration not stated)	11.7 µM
CCCNC(=O)c1onc(CSc2ccc(Cl)cc2)c1C(=O)NCCC(C)C	2.99 µM
Cc1ccn2c(NC3CCCCC3)c(-c3cccc(-c4cccc(Cl)c4)c3)nc2c1	6.68 µM
N#Cc1c(NC(=O)c2ccc(Cn3cc(Br)cn3)o2)sc2c1CCCCC2	13.4 µM
O=C1CC(=Nc2ccccc2)NN1c1ccccc1	12.4 µM
O=C(Nc1ccc2c(c1)CCC2)c1cc(S(=O)(=O)Nc2ccc(F)cc2)c(Cl)cc1Cl	5.38 µM
Nc1c(C(O)(C(F)(F)F)C(F)(F)F)cc(C(O)(C(F)(F)F)C(F)(F)F)c2ccccc12	3.95 µM
Clc1ccc(/C=C/c2nc3ccccc3[nH]2)cc1	3.5 µM
CC(C)(C)C1CCC2(CC1)C(C#N)=C(SCC(=O)NC1CCCCC1)NC(=O)C2C#N (configuration not stated)	9.88 µM
Cn1nnnc1Sc1ncnc2scc(-c3cccc(Br)c3)c12	3.14 µM
Cc1ccc(CSc2nc3sc(C)c(C)c3c(=O)n2Cc2ccco2)cc1	> 19.5 µM (inactive)
CCN(CC)CCNc1ncnc2c1sc1nc(N3CCOCC3)c3c(c12)CC(C)(C)SC3	6.99 µM
NC(=O)CC(NC(=O)Cc1cccc2ccccc12)c1ccc(NCc2ccc(F)cc2)c([N+](=O)[O-])c1 (configuration not stated)	19.8 µM

Structure (SMILES)	AC50
C[C@@H]1O[C@@H](O[C@@H]2C=C3CC[C@@H]4C(CC[C@]5(C)[C@@H](c6ccc(=O)oc6)CC[C@]45O)[C@@]3(C)CC2)[C@H](O)[C@H](O)[C@H]1O (some centres not stated)	< 0.16 µM
Cc1nn(-c2ccccc2)c(C)c1/C=N/NC(=O)c1cc(-c2ccc(Br)s2)[nH]n1	4.72 µM
O=c1nc(/C=C/c2ccc(Cl)cc2Cl)cc(C(F)(F)F)[nH]1	1.55 µM
COc1ccc(OC)c(/C=C2\S/C(=N/NC(=O)c3ccc4ccccc4c3)NC2=O)c1	9.71 µM
Cc1ccc2[nH]c3nc(N/N=C/c4cccc(O)c4)nnc3c2c1	0.248 µM
S=C(Nc1ccccc1Cl)N1CCCC(c2ccccc2)=N1	8.88 µM
Cc1ccc(C(=O)Nc2ncc(Cc3ccccc3)s2)o1	1 µM
Cc1nc2sccn2c(=O)c1CCN1CCC(=C(c2ccc(F)cc2)c2ccc(F)cc2)CC1	5.23 µM
COc1ccc(OC)c(C(=O)/C=C/c2ccccc2C(F)(F)F)c1	6.67 µM
CN(CC(=O)Nc1cccc(F)c1)C(=O)c1cn(-c2ccccc2)nc1-c1ccc(Cl)cc1	3.85 µM
Cc1cccc(NC(=S)N/N=C/c2c[nH]c3ccccc23)c1	1.63 µM
COC(=O)c1ccc(COc2ccccc2/C=C(\C#N)C(=O)Nc2c(C)cccc2C)cc1	2.86 µM
C[C@@H]1CN([C@H](C)CO)C(=O)c2cc(NC(=O)Nc3ccc(C(F)(F)F)cc3)ccc2O[C@H]1CN(C)S(=O)(=O)c1ccc(Cl)cc1	3.84 µM
O=C(/C=C/c1ccncc1)c1ccc(NC(=O)c2ccccc2F)cc1	4.38 µM
O=C(NCc1cccnc1)c1ccc(NC(=O)c2ccc(Br)cc2)cc1	3.11 µM
CC(=O)n1c2c(c3ccccc31)OC(N)=C(C#N)C2c1cccc(Cl)c1Cl (configuration not stated)	4.88 µM
Cc1ccc(N=Nc2ccc(O)cc2)c(Br)c1	8.42 µM
O=C(O)c1ccccc1C(=O)NNc1ccc(Cl)cc1	3.95 µM
COc1cc(N/N=C(\C)c2ccc(O)c(C)c2)nc(-c2ccccc2)n1	4.75 µM
C[C@]12CC[C@H]3C(CCC4(O)CC(O)CC[C@]34C=O)C1=CC[C@H]2c1ccc(=O)oc1 (some centres not stated)	3.6 µM
Cc1cccc(NC(=O)c2nc[nH]c2C(=O)N[C@@H](C)c2ccccc2)c1	12 µM
S=C1NC[C@H](Cc2ccccc2)N1CCCCC1CCCCC1	4.19 µM
COc1cc(NC(=O)c2csc(N)n2)cc(C(=O)Nc2cccc(C(F)(F)F)c2)c1	5.65 µM
CCOC(=O)C(=Cc1ccc(-n2cncn2)cc1)C(=O)OCC	6.4 µM
CN1CCN(c2ccccc2NC(=O)c2ccc(-c3ccc(Cl)cc3Cl)o2)CC1	6.57 µM
O=[N+]([O-])c1ccc(S(=O)(=O)Nc2ccc(-c3csc(-c4ccccc4)n3)cc2)cc1	4.06 µM

Structure (SMILES)	AC50
O=C(Nc1ccc(Cl)cc1)N1CCCN(c2ccc(C(F)(F)F)cc2[N+](=O)[O-])CC1	6.57 µM
CCCc1nc2ccccc2c(C(=O)OCC(=O)N2CCc3ccccc32)c1CC	3.97 µM
COc1ccc(C(C)NCCC(c2ccc(OC(C)C)cc2)c2ccccc2OC)cc1 (configuration not stated)	5.44 µM
COc1ccccc1CNC(=S)Nc1ccc2nc(N3CCN(C)CC3)cc(C)c2c1	0.427 µM
COc1cc(-c2ccc3oc(-c4cccc(C)c4)c(C#CC4(O)CCCCC4)c3c2)cc(OC)c1OC	15.4 µM
COc1cccc(NP(=O)(Oc2ccc(Cl)cc2)Oc2ccc(Cl)cc2)c1	5.83 µM
Cc1cc(C)nc(NC(=O)c2ccc(COc3ccccc3Cl)cc2)c1	0.401 µM
COc1ccc(-c2nc(N)nc(C)c2Oc2ccccc2Br)c(O)c1	5.08 µM
Cc1ccc(-c2cc([C@H]3[C@@H]4C=CCC[C@@]4(C)C(=O)N3Cc3ccccc3)ccc2F)cc1	5.2 µM
CCCCCc1cc(=O)oc2c(C(CCN3CCCCC3)c3ccc4c(c3)OCO4)c(OC)cc(OC)c12 (configuration not stated)	6.89 µM
COC(=O)c1c(-c2ccc(N(C)C)cc2)sc2ccc(OC)cc12	> 19.5 µM (inactive)
CC(=O)Nc1ccc(C2CC(c3ccc(Cl)cc3)=NN2c2ccccc2)cc1 (configuration not stated)	2.13 µM
CC1=C(C(=O)OC2CCCCC2)C(c2ccc(C)o2)C2=C(CC(C)(C)CC2=O)N1 (configuration not stated)	12.9 µM
Cc1cccc(NC(=O)c2nc[nH]c2C(=O)NCCCNC(=O)c2[nH]cnc2C(=O)Nc2cccc(C)c2)c1	6.71 µM
Cc1ccccc1N1CCN(C(=O)c2ccc(Oc3ccc(C(F)(F)F)cn3)cc2)CC1	4.66 µM
O=S(=O)(Nc1ccc(-c2nnc(SCc3ccc(Cl)cc3)o2)cc1)c1ccccc1	3.6 µM
Clc1ccc(COC(Cn2ccnc2)c2ccc(Cl)cc2Cl)c(Cl)c1 (configuration not stated)	6.47 µM
Cc1ccc(NCc2ccc([N+](=O)[O-])s2)cc1	> 19.5 µM (inactive)
CNC(=O)c1c(NC(=O)c2ccc(S(=O)(=O)N3CCCc4ccccc43)cc2)sc2c1CCN(C)C2	0.987 µM
CN(Cc1ccco1)c1ncnc2ccc(-c3ccc4c(ccn4C)c3)cc12	3.01 µM
N#CC1=C(N)N2C(=C(C#N)C1c1ccc(Br)cc1)Nc1ccccc12 (configuration not stated)	2.99 µM
CNC(=O)c1cc(Oc2ccc(NC(=O)Nc3ccc(Cl)c(C(F)(F)F)c3)cc2)ccn1	2.39 µM
COc1ccc(C2=NN(C(=O)COC(=O)c3ccc(S(C)(=O)=O)c([N+](=O)[O-])c3)C(c3ccco3)C2)cc1 (configuration not stated)	3.84 µM
CC1CCCC(NCC(O)COC(c2ccc(F)cc2)c2ccc(F)cc2)C1C (configuration not stated)	6.69 µM
Cc1cc2oc(=O)c(CC(=O)NCCCN(C)C)c(C)c2c2occ(C(C)(C)C)c12	2.85 µM
Cc1ccc(-c2cc(C(=O)N3N=C(C(F)F)CC3(O)C(F)F)c3ccccc3n2)cc1C (configuration not stated)	4.55 µM

Structure (SMILES)	AC50
CCOC(=O)c1c(NC(NC(=O)C(C)C)C(Cl)(Cl)Cl)sc2c1CCC2 (configuration not stated)	7.47 µM
CC1CCCC(NC(=S)Nc2ccc(SC(F)F)cc2)C1C (configuration not stated)	6.34 µM
C[C@@H]1CC=C[C@H]2[C@H]1C(=O)N(Cc1ccccc1)[C@H]2c1ccc2ccccc2c1	6.67 µM
Cc1cccc(-n2ncc(Cl)c(Cl)c2=O)c1	4.52 µM
COc1ccc(C2NCCc3c2[nH]c2ccccc32)cc1COc1ccc(F)cc1 (configuration not stated)	7.34 µM
COc1ccc(-n2nc3c(N4CCC(C(=O)NCCc5ccccc5C)CC4)nnc(C)c3c2C)cc1	4.85 µM
Cc1nn(Cc2ccc(Cl)cc2)c(C)c1NC(=O)c1cc(-c2ccc3c(c2)OCO3)on1	1.17 µM
C[C@]12CCC(O)CC1CCC1C2CC[C@]2(C)C(c3cc(C(F)(F)F)n[nH]3)CCC12 (some centres not stated)	1.78 µM
CC(=O)Nc1ccc(OCC(O)CN2CCN(c3cc(Cl)ccc3C)CC2)cc1 (configuration not stated)	5.17 µM
C=CCn1c(SCc2c(C)noc2C)nc2ccccc2c1=O	1.78 µM
CCCCNc1c(-c2ccc(OC)c(SC(C)CC)c2)nc2ccc(C)cn12 (configuration not stated)	6.78 µM
Cc1ccc(N2C(=O)C3C4C=CC(CC4)C3C2=O)cc1Br (configuration not stated)	1.38 µM
CCN1CCN(CCCNC(=O)c2ccc3c(c2)NC(=O)/C(=C\c2cccc(C)c2)S3)CC1	3.62 µM
COc1ccc2nc(N=Nc3ccc(O)c4ccccc34)sc2c1	3.27 µM
Cc1ccc(NC(=O)c2nc[nH]c2C(=O)NCCCNC(=O)c2[nH]cnc2C(=O)Nc2ccc(C)cc2)cc1	3.86 µM
CC1(C)CC[C@]2(CO)CC[C@]3(C)C(=CCC4[C@@]5(C)CC[C@H](O)[C@@](C)(CO)C5CC[C@]43C)[C@@H]2C1 (some centres not stated)	3.97 µM
COc1cc(NS(C)(=O)=O)ccc1Nc1c2ccccc2nc2ccccc12	2.11 µM
COc1ccc(C(=O)NCC2(c3ccccc3)CCCC2)c(OC)c1	9.54 µM
COC(=O)c1cc(=O)n(Cc2ccc(F)cc2)c(=Nc2ccccc2)s1	5.87 µM
CC[C@@]1(O)C(=O)OCc2c1cc1n(c2=O)Cc2cc3c(NC(=O)CN)cccc3nc2-1	2.56 µM
CCNS(=O)(=O)c1ccc(NC(=O)Nc2cccc(C(F)(F)F)c2)cc1	13.5 µM
CN(C)CCCn1c(=S)[nH]c2sc3c(c2c1=O)CCCC3	> 19.5 µM (inactive)
O=C(NCCCSc1ccccc1)c1cc(Br)ccc1O	5.85 µM
CN(C)CCNC(=O)c1sc2nc(-c3ccccc3)cc(C(F)(F)F)c2c1N	5.23 µM
